Results taken from paper PMC8078777 (PLoS Pathogens, 2021).
Converted amounts (≈) assume the structure as drawn. “And” between values parts separate entries of the source, which are not always exact repeats. Equal values may be shown once. “Also recorded” adds a separate entry of the source.

Assays:
tobacco leaves = assay: Tobacco leaf infiltration assay, compounds alone; format: in vivo, Nicotiana tabacum; conditions: 1 mM compound in 5% DMSO, 24 h
Experimental: (§1) Tobacco plants (Nicotiana tabacum ‘White Burley’) were grown in a controlled growth chamber with supplementary light (70−90 μMm^-2s^-1) and a 16 h photoperiod with 22°C day and 20°C night temperatures at 75±2% humidity. Using blunt-ended syringe pressure infiltration, 100 μL of solution (either 400 nM NLPPp or 250 nM NLPPya in ultrapure water in the absence or presence of the compounds) was infiltrated abaxially into the leaves of 5−7-week-old tobacco plants (Nicotiana tabacum ‘White Burley’). 5% DMSO, NLP solutions, and appropriate compound dilutions were used as controls. The area on the upper side of the leaf, which was infiltrated with solutions, was labeled and checked for the presence of necrosis after 24 h. To thoroughly assess the effect of compound 6G7 on the level of leaf necrosis/chlorosis, 50 μL of 100 nM NLPPya solution without/with 500 μM or 1 mM 6G7 in 20 mM MES, 150 mM NaCl, pH 5.8, containing 10% DMSO was infiltrated. The level of leaf chlorosis was estimated using ImageJ software by calculating the ratio of the chlorotic area to the whole infiltrated area, both measured in squared pixels. Each value represents the average of sixteen infiltrations.

NLPPya [1] = biological target: T1, NLPPya (Pythium aphanidermatum, UniProt Q9SPD4); assay: Surface plasmon resonance binding to immobilized NLPPya; conditions: for SPR binding to NLPPya (in words): sensor-chip-immobilized NLPPya; for Kd: SPR, steady-state affinity model, 50 mM MES, 150 mM NaCl, 5% DMSO, pH 5.8
T1 sequence (Q9SPD4 18-234 limits assumed): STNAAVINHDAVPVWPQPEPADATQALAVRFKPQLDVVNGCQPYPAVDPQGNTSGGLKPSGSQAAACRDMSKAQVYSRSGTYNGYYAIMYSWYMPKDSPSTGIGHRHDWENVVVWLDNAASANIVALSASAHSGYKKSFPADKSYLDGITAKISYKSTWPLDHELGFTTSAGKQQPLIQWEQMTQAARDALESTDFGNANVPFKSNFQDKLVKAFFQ
Experimental: Biacore T100 equipped with the Series S Sensor chip CM5 (GE Healthcare) was used to assess the binding of compounds to NLPPya and NLPPp. The proteins were covalently immobilized to the chip using amine coupling. The surface was activated with a 10 min injection of a mixture of 1-ethyl-3-(3-dimethylaminopropyl) carbodiimide hydrochloride / N-hydroxysuccinimide (1:1). NLPs were immobilized on the second flow cell. The first flow cell was left empty to control any nonspecific compound binding to the dextran matrix. […] In total, 587 in-house compounds (Faculty of Pharmacy, University of Ljubljana) were dissolved in DMSO as stock solutions at a concentration of 10 mM and diluted in 50 mM 2-(N-morpholino)ethanesulfonic acid (MES) and 150 mM NaCl to a final concentration of 5% DMSO (pH 5.8) prior to SPR experiments. After washing the sensor surface with running buffer (50 mM MES, 150 mM NaCl, 5% DMSO, pH 5.8), the compounds were tested at two different concentrations: 20 and 200 μM. Certain compounds were tested at lower concentrations owing to their lower solubility in the running buffer. Each compound was injected for 1 min at a flow rate of 30 μL/min, and dissociation was monitored for another minute. […] In the next set of experiments, 67 selected compounds were titrated. The samples were injected for 1 min at a flow rate of 30 μL/min, and dissociation was monitored for another minute. The samples were typically injected at the following concentrations: 0, 12.5, 25, 50, 100, and 200 μM. At the end of each concentration series, 25 μM of compound was injected again to control the activity of the surface. Regeneration between individual injections was not needed for molecules that completely dissociated from the protein. When complete dissociation was not achieved, short pulses of 0.1% SDS were included. The obtained sensorgrams were analyzed using the Biacore T100 Evaluation software, and the steady-state affinity binding model was used to calculate affinity constants.

Phytophthora infestans = format: in vivo; conditions: for P. infestans infection spots on potato leaves (size and coloring): 1 mM compound applied with zoospores, 4 days; for P. infestans growth on potato leaves by real-time PCR: 1 mM compound, 4 days after infection, vs control compound 6E11
Caco-2 cells = assay: Caco-2 cell toxicity, MTT assay; format: cell-based, human; conditions: overnight
Experimental: (§2) Caco-2 cells were seeded onto microtiter 96-well plates at a density of 70,000 cells/mL in 50 µL of minimal essential medium (Sigma) supplemented with 10% fetal bovine serum (Sigma), 1% L-glutamine (Gibco), and 1% non-essential amino acids (Sigma). Cells were incubated for two days at 37 °C in a humidified atmosphere containing 5% CO2. Then the cells were treated with the selected compounds at different concentrations: 6G7 and 6C3 were added at concentrations of 0.0625, 0.125, 0.25, 0.5, 1, and 2 mM, and 7C8 at concentrations of 3.125, 6.25, 12.5, 25, 50, and 100 μM. The final DMSO concentration in the medium was adjusted as indicated by the solubility of individual compounds and was reduced proportionally with serial dilutions. The highest DMSO concentration in assays was 5%. After overnight incubation, the cell viability was assessed by the MTT assay. Briefly, 3-(4,5-dimethylthiazol-2-yl)-2,5-diphenyltetrazolium bromide (MTT) reagent was added to each well at a final concentration of 1 mg/mL and incubated for 3 h. The medium was then removed, and the formazan product of living cells was dissolved in DMSO. The absorbance was measured at 570 nm with a Fluostar Galaxy microplate reader. Three independent experiments with the compounds 6C3 and 7C8 and four independent experiments with the compound 6G7 were performed.

NLPPya [2] = biological target: T1, NLPPya; assay: Tobacco leaf infiltration assay, NLPPya-induced necrosis/chlorosis; format: in vivo; conditions: 24 h; for effect on NLPPya-induced necrosis: 200 nM NLPPya, tobacco leaves
Experimental: as §1, with “([…]” for “(either 400 nM NLPPp or 250 nM NLPPya in ultrapure water in the absence or presence”, “To thoroughly assess the effect of compound 6G7 on the level of leaf necrosis/chlorosis, 50 μL of 100 nM NLPPya solution without/with 500 μM or 1 mM 6G7 in 20 mM MES, 150 mM NaCl, pH 5.8, containing 10% DMSO was infiltrated.” left out

[3] = Solubility in SPR running buffer; format: physicochemical; conditions: SPR running buffer containing 5% DMSO
[4] = Caco-2 cell toxicity, MTT assay; format: cell-based, human; conditions: human, Caco-2, 12.5 μM, overnight, read-out: Caco-2 cell viability, of the untreated control
Experimental: as §2

NLPPya [5] = biological target: T1, NLPPya; assay: Ion leakage from tobacco leaf disks induced by NLPPya; format: in vivo; conditions: 100 nM NLPPya, conductivity after 2 h
Experimental: Tobacco leaves were infiltrated with 100 nM NLPPya in 20 mM MES, 150 mM NaCl pH 5.8, preincubated for 10 min with 500 μM or 1 mM 6G7. Final concentration of DMSO in solution was 10%. After 10 min incubation, 2 leaf disks were punched out (Ø 6 mm) and transferred to 2 mL of deionized distilled water. After 30 min of shaking at 430 rpm, leaf disks were transferred to 1 mL of fresh deionized distilled water. Conductivity was measured after 2 h using SevenCompact Cond meter (Mettler Toledo). Mock treated samples were discs from leaves infiltrated with buffer containing 10% DMSO or 6G7. Each value represents the average of 12–18 independent experiments.

NLPPya [6] = biological target: T1, NLPPya; assay: STD-NMR binding to NLPPya; conditions: 25°C
Experimental: STD-NMR experiments were performed with 8 μM NLPPya. A pseudo-2D version of a STD-NMR pulse sequence with DPFGSE water suppression for the interleave acquisition of on- (δ 0.2 ppm) and off-resonance (δ 40 ppm) spectra was used at 25°C with 512 scans. A 30 ms spin-lock filter was used for protein signal suppression. The STD spectra were obtained by subtracting the saturated spectra from the reference spectra. The STD effect was calculated by (I0-Isat)/I0, where I0 is the signal intensity in the off-resonance spectrum, Isat is the signal intensity in the on-resonance spectrum, and I0-Isat is the intensity of the STD-NMR spectrum. Appropriate control experiments in the absence of protein were performed to assure the absence of direct irradiation of the ligand. In the titration study, five STD experiments were performed with varying ligand concentrations (40, 80, 240, 400, and 560 μM).
The STD amplification factor (STD-AF) was determined according to Eq 1, where [L] is the ligand concentration, and [P] is the NLPPya concentration.
The hyperbolic behavior of the curves obtained from plotting STD-AF as a function of ligand concentration is appropriately described by Eq 2, where STD-AF is the STD amplification factor, αSTD is the maximum amplification factor, [L] is the ligand concentration, and KD is the dissociation constant. […]

Row | Structure (SMILES) | toxic effects of compound alone on leaf tissue (tobacco leaves) | SPR binding to NLPPya (in words) (NLPPya [1]) | P. infestans infection spots on potato leaves (size and coloring) (Phytophthora infestans) | P. infestans growth on potato leaves by real-time PCR (Phytophthora infestans) | reduction of Caco-2 cell viability (Caco-2 cells; 1 mM) [%] | reduction of Caco-2 cell viability (Caco-2 cells; 2 mM) [%] | effect on Caco-2 cell viability (Caco-2 cells; concentrations below 500 μM) | effect on NLPPya-induced necrosis (NLPPya [2]; 1 mM compound) | Kd (NLPPya [1]) | solubility limit [3] | solubility ([3]; pH 5.8, aqueous with cosolvent or surfactant or cyclodextrin, kinetic from dmso stock, read-out: solubility limit) [µM] | viability at 12.5 µM [4] [%] | reduction of Caco-2 cell viability (Caco-2 cells; 3.125 μM) [%] | effect on NLPPya-induced necrosis (NLPPya [2]; 200 μM compound) | ion leakage induced by NLPPya from tobacco cells (NLPPya [5]; 500 μM compound) | ion leakage induced by NLPPya from tobacco cells (NLPPya [5]; 1 mM compound) | STD signals in the presence of NLPPya (NLPPya [6]; 400 μM ligand, 1:50 receptor-to-ligand ratio) | Kd (NLPPya [6]; STD-NMR titration, 8 μM NLPPya) [µM] | effect on Caco-2 cell viability (Caco-2 cells; up to concentrations approximately 10 times higher than its KD for NLPs) | NLPPya-induced leaf chlorosis (NLPPya [2]; 100 nM NLPPya, 1 mM compound, buffer with 10% DMSO)
1 | Cc1ccc2occ(C3N[C@H](C(=O)O)CS3)c(=O)c2c1 (stereo partly drawn) [6C3, (4R)-2-(6-methyl-4-oxo-4H-chromen-3-yl)thiazolidine-4-carboxylic acid] | did not affect the plant tissue | stable binding | largely reduced or disappeared | significantly reduced | 8 | 15 | did not affect cell viability | inhibited | – | – | – | – | – | – | – | – | – | – | – | –
2 | Cc1oc([C@@H](O)[C@H](O)[C@H](O)CO)cc1C(=O)O [6E11, 2-methyl-5-((1S,2R,3R)-1,2,3,4-tetrahydroxybutyl)furan-3-carboxylic acid, reference compound] | did not affect the plant tissue | did not bind | – | – | – | – | – | – | – | – | – | – | – | – | – | – | – | – | – | –
3 | O=C(Cc1c[nH]c2ccccc12)Nc1ccccc1CCOC(=O)Cc1c[nH]c2ccccc12 [7C8, 2-(2-(1H-indol-3-yl)acetamido)phenethyl 2-(1H-indol-3-yl)acetate] | did not affect the plant tissue | – | largely reduced or disappeared | significantly reduced | – | – | – | – | 52.8 µM and ~50 µM | poorly soluble at concentrations of >180 | ~180 (≈ 81.3 µg/mL) | 20 | 35 | inhibited | – | – | – | – | – | –
4 | COc1ccc(Nc2ccccc2C(=O)O)cc1 [6G7, 2-((4-methoxyphenyl)amino)benzoic acid] | did not affect the plant tissue | – | largely reduced or disappeared | significantly reduced; also recorded: significantly inhibited | – | – | – | inhibited | 131 ± 36.4 µM | – | – | – | – | – | efficiently inhibit | efficiently inhibit | clear STD signals | 150 ± 7 | did not affect cell viability; also recorded: non-toxic | efficiently reduced
